Assay results published in patent publication US4892876A, “Method for inhibiting HIV and an pharmaceutical composition therefor” (Nippon Kayaku Kabushiki Kaisha, priority 1987, dated 1990).

How the values were obtained:
[1] = tested on: mice; assay: Toxicity after 1 intraperitoneal administration in mice; type: in vivo; conditions: 1 administration of 800 mg/kg
[2] = tested on: HIV (Human Immunodeficiency Virus); assay: Inhibition of HIV cytopathic effect in MT-4 cells (microscopic observation); type: cell-based
Procedure: (§1) About 50,000 cells/ml of MT-4 cell was introduced into a tray having 24 holes. Further, 100 ul of a solution containing a predetermined quantity of oxcetanocin was added, and then it was cultured in a 5% (v/v) carbon dioxide gas incubator at 37° C. for 2 hours. Subsequently, 10^3 to 1.0^4 infective units of HIV were added and cultured for 5 days. Then, the inhibition of cytopathic effect was observed microscopically.

[3] = tested on: MT-4 cell; assay: Cytotoxic effect on MT-4 cell without virus; type: cell-based; conditions: at concentration of 30 ug/ml
Procedure: as §1, with “microscopically. Cytotoxic effect of oxcetanocin on MT-4 cell was examined without adding virus according to the above technique.” for “microscopically.”

[4] = Toxicity, general statement including repetitive administration; type: in vivo
[5] = tested on: HIV (Human Immunodeficiency Virus); assay: Development of virus antigen in HIV-infected MT-4 cells (fluorescent antibody technique); type: cell-based

Nc1ncnc2c1ncn2C1OC(CO)C1CO (centres unmarked) [Oxcetanocin, oxcetanocin]
Toxic sign [1]: Any toxic sign has not been observed | Inhibition of cytopathic effect (in words) [2]: predominantly inhibitory to cytopathic effect | Cytotoxicity (in words) [3]: not cytotoxic | Toxicity [4]: slightly toxic | Development of virus antigens (in words) [5]: very suppressive to development of virus antigens
